Here are results for 25 compounds from patent US9884063B2, “Amido-substituted azole compounds” (Bayer Pharma Aktiengesellschaft, priority 2014, dated 2018).

Molecules are shown by their SMILES. Structures can show the parent of a compound that is named as a salt.

The assay has as its target T1, TNKS1 (Homo sapiens, UniProt O95271).
T1 sequence (O95271 1-1327): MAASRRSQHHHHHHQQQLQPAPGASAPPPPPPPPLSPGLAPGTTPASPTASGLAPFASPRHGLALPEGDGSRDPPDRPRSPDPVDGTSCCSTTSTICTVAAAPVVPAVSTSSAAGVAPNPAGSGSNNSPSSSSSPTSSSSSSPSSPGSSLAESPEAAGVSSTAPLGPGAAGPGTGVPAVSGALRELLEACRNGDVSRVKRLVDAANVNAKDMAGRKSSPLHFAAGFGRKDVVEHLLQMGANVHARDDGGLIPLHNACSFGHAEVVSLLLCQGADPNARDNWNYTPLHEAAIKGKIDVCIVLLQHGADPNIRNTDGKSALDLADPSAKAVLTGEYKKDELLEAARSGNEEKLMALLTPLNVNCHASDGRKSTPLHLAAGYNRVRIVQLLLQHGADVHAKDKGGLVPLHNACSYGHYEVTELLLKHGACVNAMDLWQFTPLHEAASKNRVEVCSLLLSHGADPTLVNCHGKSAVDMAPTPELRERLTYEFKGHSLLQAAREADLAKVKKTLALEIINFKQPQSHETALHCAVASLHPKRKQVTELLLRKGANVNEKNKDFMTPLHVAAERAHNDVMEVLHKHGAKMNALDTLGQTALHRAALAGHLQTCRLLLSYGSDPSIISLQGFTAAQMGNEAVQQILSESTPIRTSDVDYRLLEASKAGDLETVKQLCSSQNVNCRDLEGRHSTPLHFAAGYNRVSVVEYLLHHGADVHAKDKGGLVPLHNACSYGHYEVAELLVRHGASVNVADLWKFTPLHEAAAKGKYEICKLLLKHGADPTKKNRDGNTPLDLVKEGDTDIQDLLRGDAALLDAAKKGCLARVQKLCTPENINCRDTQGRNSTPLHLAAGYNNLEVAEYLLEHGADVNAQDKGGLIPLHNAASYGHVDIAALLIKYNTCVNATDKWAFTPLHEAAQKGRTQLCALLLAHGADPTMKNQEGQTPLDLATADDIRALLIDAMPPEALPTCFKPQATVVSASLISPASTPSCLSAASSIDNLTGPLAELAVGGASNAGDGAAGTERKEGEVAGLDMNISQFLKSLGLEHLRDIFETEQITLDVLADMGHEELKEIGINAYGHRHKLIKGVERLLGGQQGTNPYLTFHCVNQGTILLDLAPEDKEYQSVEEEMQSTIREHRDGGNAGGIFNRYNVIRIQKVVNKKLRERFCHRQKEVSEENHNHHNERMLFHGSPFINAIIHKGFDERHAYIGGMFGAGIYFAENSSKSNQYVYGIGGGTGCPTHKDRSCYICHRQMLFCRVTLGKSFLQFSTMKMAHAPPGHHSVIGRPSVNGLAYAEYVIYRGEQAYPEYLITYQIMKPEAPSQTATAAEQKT
Kind of assay: Modified TNKS1 Assay 3 (BPS kit #80573, biotin-NAD+, 96 well). The class given is biochemical. As to conditions: human TNKS1, BPS kit #80573, 96 well. In a few lines:
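Chemiluminescent assay of TNKS1-catalysed ribosylation of a protein substrate with biotin-labelled NAD+, detected via streptavidin-HRP; run per kit protocol. Inhibition lowers the signal, and IC50 is the compound concentration halving the normalised readout.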

The compound `CNC(=O)c1nc[nH]c1C(=O)Nc1ccc(NC(=O)c2c(C)cc(C)cc2C)cc1` [Example 35, N^5-{4-[(mesitylcarbonyl)amino]phenyl}-N^4-methyl-1H-imidazole-4,5-dicarboxamide] registered an IC50 greater than 500 nM.

Compound `O=C(Nc1ccc(NC(=O)c2ocnc2C(=O)NCCN2CC[C@@H](F)C2)cc1)c1ccc(F)cc1Cl` [Example 222, N^5-{4-[(2-chloro-4-fluorobenzoyl)amino]phenyl}-N^4-{2-[(3R)-3-fluoropyrrolidin-1-yl]ethyl}-1,3-oxazole-4,5-dicarboxamide] came in with an IC50 of 220 nM. Compound `O=C(Nc1ccc(NC(=O)c2[nH]cnc2C(=O)NCCC2CC2)cc1)c1cc(F)c(F)cc1Cl` [Example 49, N^5-{4-[(2-chloro-4,5-difluorobenzoyl)amino]phenyl}-N^4-(2-cyclopropylethyl)-1H-imidazole-4,5-dicarboxamide] gave an IC50 greater than 500 nM. Turning to `COc1cc(NC(=O)c2[nH]cnc2C(=O)NCCN2CCCCC2)ccc1NC(=O)c1ccccc1Cl` [Example 101, N^5-{4-[(2-chlorobenzoyl)amino]-3-methoxyphenyl}-N^4-[2-(piperidin-1-yl)ethyl]-1H-imidazole-4,5-dicarboxamide], half-maximal inhibition (IC50) was put at 40 nM. The compound `O=C(Nc1ccc(NC(=O)c2[nH]cnc2C(=O)NCCN2CCCCC2)cc1F)c1ccc(F)cc1Cl` [Example 74, N^5-{4-[(2-chloro-4-fluorobenzoyl)amino]-3-fluorophenyl}-N^4-[2-(piperidin-1-yl)ethyl]-1H-imidazole-4,5-dicarboxamide] displayed a half-maximal inhibitory concentration (IC50) of 2 nM. For `O=C(Nc1ccc(NC(=O)c2nc[nH]c2C(=O)NCCN2CCC[C@H](O)C2)cc1)c1ccc(F)cc1Cl` [Example 271, N^4-{4-[(2-chloro-4-fluorobenzoyl)amino]phenyl}-N^5-{2-[(3S)-3-hydroxypiperidin-1-yl]ethyl}-1H-imidazole-4,5-dicarboxamide], the 50% inhibitory concentration (IC50) amounted to 6 nM. Then `CN(C)CCNC(=O)c1ncoc1C(=O)Nc1ccc(NC(=O)c2ccc(F)cc2Cl)cc1` [Example 31, N^5-{4-[(2-chloro-4-fluorobenzoyl)amino]phenyl}-N^4-[2-(dimethylamino)ethyl]-1,3-oxazole-4,5-dicarboxamide], with 130 nM; and `CNC(=O)c1[nH]c(C)nc1C(=O)Nc1ccc(NC(=O)c2ccc(F)cc2Cl)cc1` [Example 65, N^4-{4-[(2-chloro-4-fluorobenzoyl)amino]phenyl}-N^5,2-dimethyl-1H-imidazole-4,5-dicarboxamide], with 160 nM; and `CNC(=O)c1nc[nH]c1C(=O)Nc1ccc(NC(=O)c2ccccc2Br)cc1` [Example 37, N^5-{4-[(2-bromobenzoyl)amino]phenyl}-N^4-methyl-1H-imidazole-4,5-dicarboxamide], with 330 nM. Compound `CC(CN1CCOCC1)NC(=O)c1[nH]cnc1C(=O)Nc1ccc(NC(=O)c2ccc(F)cc2)cc1` (single isomer, unassigned; enantiomer 1) [Example 295, N^4-{4-[(4-fluorobenzoyl)amino]phenyl}-N^5-[1-(morpholin-4-yl)propan-2-yl]-1H-imidazole-4,5-dicarboxamide (enantiomer 1)] yielded a concentration for half-maximal inhibition (IC50) greater than 500 nM.

`CN1CCC(CNC(=O)c2nc[nH]c2C(=O)Nc2ccc(NC(=O)c3ccc(F)cc3Cl)cc2)C1` (stereo not shown) [Example 407, N^5-{4-[(2-chloro-4-fluorobenzoyl)amino]phenyl}-N^4-[(1-methylpyrrolidin-3-yl)methyl]-1H-imidazole-4,5-dicarboxamide] displayed an IC50 of 10 nM. In turn, `CCc1nc(C(=O)Nc2ccc(NC(=O)c3ccc(F)cc3Cl)cc2)c(C(=O)NCCN(C)C)[nH]1` [Example 69, N^4-{4-[(2-chloro-4-fluorobenzoyl)amino]phenyl}-N^5-[2-(dimethylamino)ethyl]-2-ethyl-1H-imidazole-4,5-dicarboxamide] gave a concentration for half-maximal inhibition (IC50) of 50 nM. Then `O=C(Nc1ccc(NC(=O)c2[nH]cnc2C(=O)N2CC(F)C2)cc1)c1cc(F)c(F)cc1Cl` [Example 47, N-{4-[(2-chloro-4,5-difluorobenzoyl)amino]phenyl}-4-[(3-fluoroazetidin-1-yl)carbonyl]-1H-imidazole-5-carboxamide], with greater than 500 nM; and `O=C(Nc1ccc(NC(=O)c2nc[nH]c2C(=O)N[C@@H]2CCNC2)cc1)c1ccc(F)cc1Cl` [Example 282, N^4-{4-[(2-chloro-4-fluorobenzoyl)amino]phenyl}-N^5-[(3R)-pyrrolidin-3-yl]-1H-imidazole-4,5-dicarboxamide hydrochloride salt], with 60 nM. `CNC(=O)c1nc[nH]c1C(=O)Nc1ccc(NC(=O)c2ccc(C#N)cc2F)cc1` [Example 369, N^5-{4-[(4-cyano-2-fluorobenzoyl)amino]phenyl}-N^4-methyl-1H-imidazole-4,5-dicarboxamide] registered an IC50 of 260 nM. For the compound `CC(CN1CCOCC1)NC(=O)c1[nH]cnc1C(=O)Nc1ccc(NC(=O)c2ccc(F)cc2Cl)cc1` (single isomer, unassigned; enantiomer 1) [Example 269, N^4-{4-[(2-chloro-4-fluorobenzoyl)amino]phenyl}-N^5-[1-(morpholin-4-yl)propan-2-yl]-1H-imidazole-4,5-dicarboxamide (enantiomer 1)], the half-inhibitory concentration (IC50) worked out at 80 nM. Then `O=C(Nc1ccc(NC(=O)c2nc[nH]c2C(=O)NCCN2CC[C@H](F)C2)cc1)c1ccc(F)cc1Cl` [Example 232, N^4-{4-[(2-chloro-4-fluorobenzoyl)amino]phenyl}-N^5-{2-[(3S)-3-fluoropyrrolidin-1-yl]ethyl}-1H-imidazole-4,5-dicarboxamide], with 290 nM. Then `O=C(Nc1ccc(NC(=O)c2nc[nH]c2C(=O)NCCCN2CCCC2)cc1)c1ccc(F)cc1Cl` [Example 274, N^4-{4-[(2-chloro-4-fluorobenzoyl)amino]phenyl}-N^5-[3-(pyrrolidin-1-yl)propyl]-1H-imidazole-4,5-dicarboxamide], with 10 nM. `CC(C)(N)CCNC(=O)c1[nH]cnc1C(=O)Nc1ccc(NC(=O)c2ccc(F)cc2Cl)cc1` [Example 286, N^5-(3-amino-3-methylbutyl)-N^4-{4-[(2-chloro-4-fluorobenzoyl)amino]phenyl}-1H-imidazole-4,5-dicarboxamide] displayed an IC50 of 70 nM. `O=C(Nc1ccc(NC(=O)c2nc[nH]c2C(=O)NCC2CCCO2)cc1)c1ccc(F)cc1Cl` (stereo not shown) [Example 237, N^4-{4-[(2-chloro-4-fluorobenzoyl)amino]phenyl}-N^5-(tetrahydrofuran-2-ylmethyl)-1H-imidazole-4,5-dicarboxamide] returned an IC50 greater than 500 nM.

`O=C(Nc1ccc(NC(=O)c2[nH]cnc2C(=O)NCCN2CCCCC2)cc1)c1ccc(F)cc1` [Example 33, N^4-{4-[(4-fluorobenzoyl)amino]phenyl}-N^5-[2-(piperidin-1-yl)ethyl]-1H-imidazole-4,5-dicarboxamide] returned a concentration for half-maximal inhibition (IC50) greater than 500 nM. The compound `CCN1CCCC1CNC(=O)c1nc[nH]c1C(=O)Nc1ccc(NC(=O)c2ccc(F)cc2Cl)cc1` (stereo not shown) [Example 390, N^5-{4-[(2-chloro-4-fluorobenzoyl)amino]phenyl}-N^4-[(1-ethylpyrrolidin-2-yl)methyl]-1H-imidazole-4,5-dicarboxamide] gave an IC50 of 0.9 nM. Then `CC(C)NCCNC(=O)c1[nH]cnc1C(=O)Nc1ccc(NC(=O)c2ccc(F)cc2Cl)cc1` [Example 288, N^4-{4-[(2-chloro-4-fluorobenzoyl)amino]phenyl}-N^5-[2-(isopropylamino)ethyl]-1H-imidazole-4,5-dicarboxamide], with 30 nM; and `CCN1CCC[C@H]1CNC(=O)c1nc[nH]c1C(=O)Nc1ccc(NC(=O)c2ccc(F)cc2Cl)cc1` [Example 404, N^5-{4-[(2-chloro-4-fluorobenzoyl)amino]phenyl}-N^4-{[(2S)-1-ethylpyrrolidin-2-yl]methyl}-1H-imidazole-4,5-dicarboxamide], with 1 nM; and `O=C(Nc1ccc(NC(=O)c2nc[nH]c2C(=O)NCCN2CC[C@@H](F)C2)cc1)c1ccc(F)cc1Cl` [Example 231, N^4-{4-[(2-chloro-4-fluorobenzoyl)amino]phenyl}-N^5-{2-[(3R)-3-fluoropyrrolidin-1-yl]ethyl}-1H-imidazole-4,5-dicarboxamide], with 170 nM.
